In a melting point compilation (Tetko et al.; mined from patent text by program, amines drawn as free bases though some values may be those of a salt):

SMILES | melting point [°C]
O=C(NNS(=O)(=O)c1ccccc1)c1ccnc2ccccc12 | 153 to 156
Cc1ccc2nc(C3(c4ccc(S(N)(=O)=O)cc4)C=C(C(F)(F)F)NN3)sc2c1 (centres undefined) | 257 to 258
O=S1(=O)NCN(C2CC2)c2ccc(C(F)(F)F)cc21 | 155 to 157
CC12CCC(O)CC1=CCC1C2CCC2(C)C(c3ccco3)=CCC12 (centres undefined) | 105 to 116
NC(=O)CC1C=CC=CC1(F)F (centres undefined) | 113 to 114
CC12CC(=O)C3C(CCC4CC(=O)CCC43C)C1CCC2C(=O)CO (centres undefined) | 164 to 170
CC(C)(C)OC(=O)NC1CCCCCC=CC2CC2(C(=O)NS(=O)(=O)C2CC2)NC(=O)C2CC(OC(=O)c3ccc(C#N)cc3)CN2C1=O (centres undefined) | 164 to 166
COC1=NS(=O)N=C1NCCCCC#CCN1CCCCC1 (centres undefined) | 134 to 136
O=C1OCCN1CCC1=NCCN1 | 118 to 123
Cc1ccc(OCCCN2CCN(c3nc(N)nc(-c4cc(Cl)ccc4Cl)n3)CC2)cc1 | 148 to 150
COc1ccc(-n2nc(C(F)(F)F)nc2-c2ccc(S(C)(=O)=O)cc2)cc1 | 156
COc1cccc2c1C13CCN(C(=O)C4CC4)C(C2)C1CCC(=O)C3 (centres undefined) | 144 to 147
O=c1cc(-c2ccc(OC3CCN(C4CCC4)CC3)cc2)cn[nH]1 | 296 to 298
Fc1ccc(Cn2c(NC3CCN(CCN(Cc4ccccc4)Cc4ccccc4)CC3)nc3ccccc32)cc1 | 116
CC(CC=Cc1ccccc1)C1CC=C2C3=C(CCC21C)C1(C)CCC(O)C(C)(C)C1CC3 (centres undefined) | 127
OCCOc1ccc2ncccc2c1 | 68 to 70
O=C(Oc1cc(OC(=O)c2ccccc2)c(Cl)cn1)c1ccccc1 | 124 to 125
COc1cc2nc(N3CCN(C(=O)C=Cc4ccc(Cl)c(Cl)c4)CC3)nc(N)c2cc1OC | 196 to 198
O=c1c2c(Cc3ccccc3)n[nH]c2c2cccnc2n1-c1cccc(F)c1 | 298 to 299
C#Cc1cnn2c(C(F)(F)F)cc(-c3cccc(C(F)(F)F)c3)nc12 | 154

More lines, now with the values ahead:

melting point [°C] | SMILES
229 to 232 | O=C(O)C1CCc2c(oc3ccc([N+](=O)[O-])cc23)C1 (centres undefined)
217 to 218 | COc1cccc(OC)c1C(=O)Oc1cc([N+](=O)[O-])cc([N+](=O)[O-])c1O
206 to 211 | CC(=O)Nc1ccc(CNc2n[nH]c(N=CN(C)C)c2C#N)cc1
226 to 228 | CCCc1c(OCc2ccc(C(=O)O)cc2[N+](=O)[O-])ccc(C(C)=O)c1O
203 to 205 | O=C(O)c1ccc(CSc2nnc(-c3ccc4c(c3)CCO4)o2)cc1
187 | CC(=O)OC/C(=C(\C(=O)O)c1ccc(F)cc1)c1ccc(S(C)(=O)=O)cc1
156 | N#Cc1ccc(C(=O)c2ccc(S)cc2)cc1
68 to 69 | CCOC(=O)CC(=O)NC(Cc1ccccc1)C(C)=O (centres undefined)
72 to 74 | CSCCC(=O)Nc1sc(-c2cccnc2)nc1SC
129 to 130 | CCCc1nn(-c2ccc(C(F)(F)F)cn2)cc1COc1ccc(CCC(=O)O)c(C)c1
115 to 118 | CCOC(=O)c1nnc(N2N=C(c3ccc([N+](=O)[O-])c(C)c3)c3cc4c(cc3C[C@H]2C)OCO4)s1
179 to 180 | Cc1oc(-c2ccccc2)nc1COc1cccc(COc2ccc(CC(=O)O)cc2)c1
175 | CCNS(=O)(=O)c1ccc(C(O)c2ccc3c(c2)C(C)(C)CCC3(C)C)cc1 (centres undefined)
204 to 207 | COC(=O)c1cc(N=Nc2ccc(S(=O)(=O)Nc3ccccn3)cc2)ccc1OC(C)=O
164 to 165 | Cc1c(Cl)ccc([N+](=O)[O-])c1N
67 | CN(C)Cc1ccc(CSCCNc2[nH]ccc2[N+](=O)[O-])o1
139 to 141 | NC(=NCCc1ccccn1)Nc1ccc(Br)cn1
> 220 | CCN(C)C1=NS(=O)(=O)c2cc(Cl)ccc2N1
83 to 86 | CC(C)OCc1cnc2c([N+](=O)[O-])cccc2c1Cl
